Experiment: Powder dissolution, visual determination of clarity in drinking water
Assay type: physicochemical
Conditions: 3.0 g in 1000 mL drinking water, stirred 2 min at 300±10 rpm, 30±1° C.; trihydrate
Method: Non-micronized amoxicillin trihydrate (3.0 g) was added to a 2 L beaker and drinking water (1000 mL) was added. The mixture was stirred for 2 min at 300±10 rpm at 30±1° C. After two minutes the stirrer was stopped. The same procedure was applied to a sample of micronized amoxicillin trihydrate. Both mixtures were visually observed.

Q: With `CC1(C)S[C@@H]2[C@H](NC(=O)[C@H](N)c3ccc(O)cc3)C(=O)N2[C@H]1C(=O)O` [Non-micronized amoxicillin trihydrate, amoxicillin trihydrate] as the molecule, how does the “Visual appearance of the mixture (clarity)” value read?
A: The value was “cloudy”.

Q: For `CC1(C)S[C@@H]2[C@H](NC(=O)[C@H](N)c3ccc(O)cc3)C(=O)N2[C@H]1C(=O)O` [micronized amoxicillin trihydrate, amoxicillin trihydrate], which “Visual appearance of the mixture (clarity)” value is on record?
A: Its value is “clear”.

Source: patent US9820943B2, “Micronized amoxicillin” (DSM SINOCHEM PHARMACEUTICALS NETHERLANDS B.V., priority 2013, dated 2017)
